From paper PMC11232401, “Characterization of antimalarial activity of artemisinin-based hybrid drugs” (Antimicrobial Agents and Chemotherapy, 2024) come the findings set out here.

Molecules are shown by their SMILES. Where two headings read alike, the source gives them in different places.

Test [1] relates to quiescent ART-resistant parasites (F32-ART). Description: Quiescent-stage survival assay (QSA). The test is classed as cell-based, Plasmodium falciparum. As to conditions: for Recrudescence time in days (median; range), Quiescent parasites (QSA) DHA / DHA + drug: then DHA plus 700 nM drug 48 h (condition B); for delay of recrudescence in the QSA versus DHA alone: threshold of activity 6 days. As for the experimental part: The QSA was performed as previously described to determine the drug activity on quiescent ART-resistant parasites ([11]). F32-ART culture parasites were synchronized at the ring stage and adjusted to 3% parasitemia and 2% hematocrit. […] At the end of treatment, parasites from each of the three conditions were washed with RPMI-1640 medium and replaced in new wells in a drug-free culture medium with 10% human serum. Parasitemia was determined daily by thin blood smears until the cultures reached their initial parasitemia (3%), which was defined as the recrudescence day ([11]). The recrudescence capacity of parasites exposed in conditions A and B was compared to determine whether the drug was active on quiescent parasites. Condition C was designed to check that the concentration at which the drug was tested acted on proliferating parasites. If no parasite recrudescence was observed, the experiment was stopped.

Test [2] deals with W2 strain (CQ-resistant) of P. falciparum. Description: Host cell-mediated drug degradation: antiplasmodial activity of uRBC supernatants. As to conditions: uRBC 1.0% hematocrit; for IC50: Plasmodium falciparum, 0.16 h, W2, pLDH, median ± SEM, read-out: IC50 of supernatants harvested at 0.16 h; for Fold changes (24 h/0.16 h): W2. The format is cell-based, Plasmodium falciparum. As for the experimental part:
(§1) Each well of 96-well plates was filled with 125 µL drug (1000 nM) and 125 µL uninfected red blood cells (uRBC), which were mixed to obtain a final drug concentration of 500 nM and 2.5% or 1.0% hematocrit. The plates were incubated at 37°C in the standard gas mixture. After each time point (10 min, 6 h, and 24 h), supernatants were carefully harvested and stored at −80°C until use. Untreated uRBC incubated at the same times were used as negative controls, and DHA and AQ were employed as standard drugs. Next, supernatants were diluted in a complete medium in six different dilutions and were aliquoted in new plates. The antimalarial activity of these supernatants and freshly dissolved drugs was determined in an asynchronous parasite culture of P. falciparum (3D7, D10, and W2 strains) for 72 h using the same method described above, and parasite viability was assessed by the pLDH ([38]) and SYBR Green I ([41]) methods. Only the experiments where the IC50 values of the supernatants harvested at 10 min were the same as those of the respective fresh drugs were considered for determining equivalent drug concentration. […] Decay in drug concentration was estimated by using the normalized slope values calculated from linear regression fits using the slope values of a standard curve as reference. Three independent experiments were performed using two replicates.
(§2) Figure S5: Data associated to Figure 3 in the main text of the manuscript. Panel A: Representative response-concentration curves of the antiplasmodial activity of supernatant-derived uRBC (2.5% hematocrit) harvested at indicated times (0.16, 6, and 24 h). Drug activity on parasite viability was determined 72 h after parasite incubation (3D7 strain, asynchronous). Values were subtracted from control (without treatment), transformed, and normalized to calculate nonlinear fit. Parasite viability was determined by SYBR Green I. Values are mean and error bars are the standard deviation of a single experiment, each concentration in duplicate. Panel B: A table summarizing the IC50 values. Footnotes: ^[a] Parasite viability was determined by SYBR Green I. ^[b^] Parasite viability was determined by pLDH readout. Values are median ± SEM of three independent experiments, each concentration in duplicate. ^[c^] […] These values are expressed as mean and 95% confidence interval (CI) of one experiment, each concentration in duplicate. AQ = amodiaquine; DHA = dihydroartemisinin; uRBC = uninfected red blood cells. Unpaired two-tailed t-test at 95% CI: *p <0.05; **p <0.01.

Test [3] deals with D10 strain of P. falciparum. The description is as above. The format is cell-based, Plasmodium falciparum. The following applies: uRBC 1.0% hematocrit; for IC50: Plasmodium falciparum, 0.16 h, D10, pLDH, median ± SEM, read-out: IC50 of supernatants harvested at 0.16 h; for Fold changes (24 h/0.16 h): D10. As for the experimental part: as §1, §2
The test system of test [4] is ring stages of NF54 strain of P. falciparum. Description: Exposure time dependence in drug activity (pLDH). The format is cell-based. The following applies: Plasmodium falciparum. As for the experimental part:
Each well of 96-well plates was filled with 100 µL drug and 100 µL culture containing ring-stage P. falciparum (NF54 strain) parasites, which were mixed to obtain a final parasitemia of 1.0% to 1.5% and 1.0% hematocrit. Plates were incubated at 37°C in a standard gas mixture. After 3 h and 6 h, plates were centrifuged, cell pellets were washed as described above then returned to the incubator for an additional 69 h and 66 h, respectively. In parallel, the same experiment was left without the washing step, enabling continuous drug exposure throughout. Plates were processed using the pLDH method, and IC50 values were calculated as described above. Three independent experiments were performed using two technical replicates.
Figure S2: Exposure time dependence of antiparasitic activity against ring stages of CQ-sensitive strain NF54 of P. falciparum. Data associated to Figure 2B in the main text of the manuscript. Footnotes for table: ^[a] Synchronized ring-stage parasites were incubated in the presence of compounds at indicated times, drugs were removed by washing, and plates were incubated until 72 h.^[b] Parasites were incubated in the presence of compounds for 72 h. ^[a,b^] Experiments were performed in parallel (paired). Parasite viability was determined by parasite lactate dehydrogenase (pLDH) assay. Data are from three experiments performed in duplicate.^ [c] […] MFQ = mefloquine. DHA = dihydroartemisinin; SEM = standard error of the mean; N.S. = not statistically significant.

Test [5] deals with Asynchronous NF54 strain of P. falciparum. Description: Speed of drug activity (pLDH). The following applies: for IC50: Plasmodium falciparum, NF54, asynchronous, mean (95% CI); for Conclusion (speed of antiparasitic activity): from IC50 at 24, 48, 72 h. The format is cell-based, Plasmodium falciparum. As for the experimental part:
Each well of 96-well plates was filled with 100 µL drug and 100 µL culture containing asynchronous P. falciparum (NF54 strain) parasites, which were mixed to obtain a final parasitemia of 1.0% to 1.5% and 1.0% hematocrit. The plates were incubated for 24, 48, and 72 h at 37°C with a standard gas mixture. […] Parasite viability was measured using the pLDH method, and IC50 values were calculated as described above. Three independent experiments were performed using two technical replicates.
Figure S3: Speed of antiparasitic activity of hybrids (1) and (2) against CQ-sensitive NF54 strain of P. falciparum. Panel A: Representative response-concentration curves. Panel B: A table summarizing the results. Footnotes for table: ^[a] Parasite viability was accessed at each indicated time (24, 48, or 72 h) after addition of drugs. Values are the mean and 95% confidence interval of one experiment using each concentration of compounds in duplicate. Parasite viability was determined by parasite lactate dehydrogenase (pLDH) assay. DHA = dihydroartemisinin; ATO = atovaquone.

The mark [6] stands for this setting: NF54, 6 h drug pulse, wash, incubated until 72 h, median ± SEM, read-out: IC50, 6 h + 66 h.
[7] abbreviates: NF54, 72 h continuous drug, median ± SEM, read-out: IC50, 72 h.
Setting [8] is: NF54, read-out: IC50, 3 h + 69 h, 3 h drug pulse, wash, incubated until 72 h, median ± SEM.
Setting [9] is: viability at 24 h, read-out: IC50, 24 h.
[10] abbreviates: viability at 48 h, read-out: IC50, 48 h.
[11] abbreviates: viability at 72 h, read-out: IC50, 72 h.

As a reminder, the IC50 is the point on the concentration scale where inhibition reaches its midpoint. In the case of `CC1CCC2C(C)C(OC(=O)CCC(=O)OCCNc3ccnc4cc(Cl)ccc34)OC3OC4(C)CCC1C32OO4` (stereo not shown) [Hybrid 2], the “Recrudescence time in days (median; range), Quiescent parasites (QSA) DHA / DHA + drug” value in test [1] (700 nM DHA 6 h) is on record as 9 (8–10) days. Besides, the “delay of recrudescence in the QSA versus DHA alone” value in test [1] is 3 days. Also, the IC50 was found to be 4.3 ± 1.74 nM in test [2]; 3.7 ± 1.32 nM in test [3]; 9 ± 1.5 nM in test [4] (setting [6]); 3.8 ± 0.4 nM in test [4] (setting [7]); 75 ± 18 nM in test [4] (setting [8]); 9.4 nM in test [5] (setting [9]). Moreover, the figures for the IC50 in test [5] (setting [10]) and in test [5] (setting [11]) were 4.3 nM and 5.6 nM, respectively. Also, the “Fold changes (24 h/0.16 h)” value in test [2] is listed as 1.38 ± 0.15; in test [3], 1.25 ± 0.46. Moreover, in test [5], the “Conclusion (speed of antiparasitic activity)” value (from here on “Conclusion”) was “Fast-acting”.
Take `COCCOCCOCCOCCn1c(-c2ccc(-n3cc(-c4ccc(OC5OC6OC7(C)CCC8C(C)CCC(C5C)C68OO7)cc4)nn3)cc2)nc2ccccc21` (stereo not shown) [Hybrid 1]: the “Recrudescence time in days (median; range), Quiescent parasites (QSA) DHA / DHA + drug” value in test [1] (700 nM DHA 6 h) is reported as 11.5 (11–12) days. In addition, the “delay of recrudescence in the QSA versus DHA alone” value in test [1] stood at 0.5 days. The results for the “Fold changes (24 h/0.16 h)” value in test [2] and in test [3] were 0.98 ± 0.22 and 0.90 ± 0.08, respectively. Further, the IC50 in test [3] is 1.8 ± 0.08 nM; in test [4] (setting [6]), 1.5 ± 0.3 nM; in test [4] (setting [7]) it was 1.5 ± 0.1 nM; in test [4] (setting [8]), 220 ± 80 nM; in test [5] (setting [9]), 2.4 nM; in test [5] (setting [10]), 3 nM. Besides, the IC50 in test [5] (setting [11]) stood at 2 nM. The “Conclusion” value in test [5] was “Fast-acting”.
Regarding `C[C@H]1[C@@H](O)O[C@@H]2O[C@@]3(C)CC[C@H]4[C@H](C)CC[C@@H]1[C@@]24OO3` [DHA, dihydroartemisinin, reference compound], the “Recrudescence time in days (median; range), Quiescent parasites (QSA) DHA / DHA” value in test [1] (700 nM DHA 6 h, then DHA alone 48 h (condition A)) is 8.5 (8–9) days. In addition, the IC50 came out at 1.9 ± 0.25 nM in test [2]; 3.5 ± 0.43 nM in test [3]; 5 ± 0.5 nM in test [4] (setting [6]); 1.9 ± 0.2 nM in test [4] (setting [7]); 100 ± 25 nM in test [4] (setting [8]); 8.3 nM in test [5] (setting [9]). Moreover, the IC50 was 2.9 nM in test [5] (setting [10]) and 2.7 nM in test [5] (setting [11]). The results for the “Fold changes (24 h/0.16 h)” value in test [2] and in test [3] were 15.82 ± 2.21 and 19.9 ± 0.09, respectively. Further, the “Conclusion” value in test [5] was “Fast-acting”.
